Assay results as given in PubChem BioAssay (NCI).
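1) Cells in 96-well plates. 2) Compound, 48 h, 5 concentrations. 3) Linear interpolation between surrounding doses. 4) Unreached endpoint = highest concentration. Here, GI50 denotes the concentration required for 50% inhibition of growth. The concentration for full growth arrest is given as TGI.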

How the values were obtained:
Assay in all cases: growth of human tumour cells (NCI), 48 h
M14 melanoma = system: M14 melanoma
HT29 colon = system: HT29 colon
K-562 leukemia = system: K-562 leukemia
786-0 renal = system: 786-0 renal
EKVX NSCLC = system: EKVX NSCLC
TK-10 renal = system: TK-10 renal
SNB-19 CNS = system: SNB-19 CNS
MALME-3M melanoma = system: MALME-3M melanoma
SK-MEL-28 melanoma = system: SK-MEL-28 melanoma
DU-145 prostate = system: DU-145 prostate
HCC-2998 colon = system: HCC-2998 colon
OVCAR-5 ovarian = system: OVCAR-5 ovarian
UACC-62 melanoma = system: UACC-62 melanoma
CAKI-1 renal = system: CAKI-1 renal
COLO 205 colon = system: COLO 205 colon
SK-OV-3 ovarian = system: SK-OV-3 ovarian
PC-3 prostate = system: PC-3 prostate
SW-620 colon = system: SW-620 colon
A498 renal = system: A498 renal
A549 NSCLC = system: A549 NSCLC
SN12C renal = system: SN12C renal
IGROV1 ovarian = system: IGROV1 ovarian
HOP-62 NSCLC = system: HOP-62 NSCLC
UO-31 renal = system: UO-31 renal
NCI-H460 lung = system: NCI-H460 lung
MCF7 breast = system: MCF7 breast
BT-549 breast = system: BT-549 breast
NCI/ADR-RES ovarian = system: NCI/ADR-RES ovarian
SK-MEL-2 melanoma = system: SK-MEL-2 melanoma
HCT-15 colon = system: HCT-15 colon
RPMI-8226 leukemia = system: RPMI-8226 leukemia
MDA-MB-231 breast = system: MDA-MB-231 breast
NCI-H226 lung = system: NCI-H226 lung
HCT-116 colon = system: HCT-116 colon
HS 578T breast = system: HS 578T breast
MOLT-4 leukemia = system: MOLT-4 leukemia
HOP-92 NSCLC = system: HOP-92 NSCLC
SNB-75 CNS = system: SNB-75 CNS
NCI-H23 lung = system: NCI-H23 lung
HL-60(TB) leukemia = system: HL-60(TB) leukemia
UACC-257 melanoma = system: UACC-257 melanoma
OVCAR-3 ovarian = system: OVCAR-3 ovarian
NCI-H522 lung = system: NCI-H522 lung
MDA-MB-435 = system: MDA-MB-435
SF-539 CNS = system: SF-539 CNS
U251 CNS = system: U251 CNS
OVCAR-4 ovarian = system: OVCAR-4 ovarian
ACHN renal = system: ACHN renal
OVCAR-8 ovarian = system: OVCAR-8 ovarian
SK-MEL-5 melanoma = system: SK-MEL-5 melanoma
LOX IMVI melanoma = system: LOX IMVI melanoma
SR leukemia = system: SR leukemia
CCRF-CEM leukemia = system: CCRF-CEM leukemia
KM12 colon = system: KM12 colon
T-47D breast = system: T-47D breast
SF-295 CNS = system: SF-295 CNS
RXF 393 renal = system: RXF 393 renal
SF-268 CNS = system: SF-268 CNS

## COc1ccc2c(c1)C(=O)/C(=C/c1ccc(OCC(=O)Nc3nccs3)cc1)O2
M14 melanoma
  GI50: 3.03 µM
  TGI: 13.5 µM
HT29 colon
  GI50: 5.31 µM
  TGI: 29.2 µM
K-562 leukemia
  GI50: 1.84 µM
786-0 renal
  GI50: 0.237 µM
  TGI: 0.563 µM
EKVX NSCLC
  GI50: 2.04 µM
TK-10 renal
  GI50: 3.39 µM
  TGI: 17.8 µM
SNB-19 CNS
  GI50: 20.4 µM
  TGI: > 65.7 µM
MALME-3M melanoma
  GI50: 0.858 µM
  TGI: 4.15 µM
SK-MEL-28 melanoma
  GI50: 12.7 µM
  TGI: 26.3 µM
DU-145 prostate
  GI50: 0.504 µM
  TGI: 5.73 µM
HCC-2998 colon
  GI50: 15.2 µM
  TGI: 31.7 µM
OVCAR-5 ovarian
  GI50: 1.79 µM
  TGI: 10.2 µM
UACC-62 melanoma
  GI50: 9.71 µM
  TGI: 23.2 µM
CAKI-1 renal
  GI50: 0.392 µM
COLO 205 colon
  GI50: 0.979 µM
  TGI: 5.09 µM
SK-OV-3 ovarian
  GI50: 17.4 µM
  TGI: > 95.4 µM
PC-3 prostate
  GI50: 0.264 µM
  TGI: 2.17 µM
SW-620 colon
  GI50: 2.88 µM
  TGI: 10.2 µM
A498 renal
  GI50: 7.99 µM
  TGI: 26.2 µM
A549 NSCLC
  GI50: 1.76 µM
  TGI: 16 µM
SN12C renal
  GI50: 2.51 µM
  TGI: 18.9 µM
IGROV1 ovarian
  GI50: 0.0169 µM
  TGI: 0.036 µM
HOP-62 NSCLC
  GI50: 0.491 µM
  TGI: 26 µM
UO-31 renal
  GI50: 0.215 µM
  TGI: 0.374 µM
NCI-H460 lung
  GI50: 15.5 µM
  TGI: 34.4 µM
MCF7 breast
  GI50: 5.75 µM
  TGI: 18 µM
BT-549 breast
  GI50: 3.86 µM
  TGI: 15.3 µM
NCI/ADR-RES ovarian
  GI50: 27.3 µM
  TGI: > 100 µM
SK-MEL-2 melanoma
  GI50: 0.231 µM
  TGI: 0.588 µM
HCT-15 colon
  GI50: 4.51 µM
  TGI: 17.8 µM
RPMI-8226 leukemia
  GI50: 0.439 µM
  TGI: 4.56 µM
MDA-MB-231 breast
  GI50: 0.748 µM
  TGI: 5.78 µM
NCI-H226 lung
  GI50: 12.8 µM
  TGI: 34.8 µM
HCT-116 colon
  GI50: 2.75 µM
  TGI: 10.7 µM
HS 578T breast
  GI50: 9.23 µM
  TGI: > 63.8 µM
MOLT-4 leukemia
  GI50: 2.09 µM
  TGI: > 100 µM
HOP-92 NSCLC
  GI50: 0.161 µM
  TGI: 0.369 µM
SNB-75 CNS
  GI50: 0.629 µM
  TGI: 9.38 µM
NCI-H23 lung
  GI50: 0.711 µM
  TGI: 19.9 µM
HL-60(TB) leukemia
  GI50: 0.187 µM
  TGI: 0.413 µM
UACC-257 melanoma
  GI50: 18 µM
  TGI: 36.6 µM
OVCAR-3 ovarian
  GI50: 0.204 µM
  TGI: 0.398 µM
NCI-H522 lung
  GI50: 0.191 µM
  TGI: 0.393 µM
MDA-MB-435
  GI50: 10.7 µM
  TGI: 46.8 µM
SF-539 CNS
  GI50: 0.184 µM
  TGI: 0.361 µM
U251 CNS
  GI50: 0.598 µM
  TGI: 22.4 µM
OVCAR-4 ovarian
  GI50: 2.26 µM
  TGI: 14.5 µM
ACHN renal
  GI50: 2.67 µM
  TGI: 20.5 µM
OVCAR-8 ovarian
  GI50: 17.2 µM
  TGI: > 60.5 µM
SK-MEL-5 melanoma
  GI50: 2.93 µM
  TGI: 16.3 µM
LOX IMVI melanoma
  GI50: 0.057 µM
  TGI: 0.108 µM
SR leukemia
  GI50: 0.27 µM
  TGI: 1.15 µM
CCRF-CEM leukemia
  GI50: 0.183 µM
KM12 colon
  GI50: 0.431 µM
  TGI: 18.8 µM
T-47D breast
  GI50: 7.05 µM
  TGI: 31.9 µM

## CC(C)c1ccc(C(C)C(=O)N(CC2=C(C(C)c3ccccn3)c3ccccc3C2)C(C)C)cc1 (stereo not given)
M14 melanoma
  GI50: 3.93 µM
  TGI: 15.6 µM
HT29 colon
  GI50: 1.6 µM
  TGI: 3.77 µM
K-562 leukemia
  GI50: 2.39 µM
  TGI: 15 µM
786-0 renal
  GI50: 3.14 µM
  TGI: 11.5 µM
EKVX NSCLC
  GI50: 1.72 µM
  TGI: 8.31 µM
TK-10 renal
  GI50: 4.81 µM
  TGI: > 100 µM
SNB-19 CNS
  GI50: 6.66 µM
  TGI: > 100 µM
SF-295 CNS
  GI50: 2.3 µM
  TGI: 7.65 µM
MALME-3M melanoma
  GI50: 2.83 µM
  TGI: 8.57 µM
SK-MEL-28 melanoma
  GI50: 10.8 µM
  TGI: 66.2 µM
DU-145 prostate
  GI50: 5.29 µM
  TGI: 18 µM
HCC-2998 colon
  GI50: 4.52 µM
  TGI: 39.1 µM
OVCAR-5 ovarian
  GI50: 5.33 µM
  TGI: 95.9 µM
RXF 393 renal
  GI50: 2.38 µM
  TGI: 14.3 µM
UACC-62 melanoma
  GI50: 8.79 µM
  TGI: 37.6 µM
CAKI-1 renal
  GI50: 1.76 µM
  TGI: 6.73 µM
COLO 205 colon
  GI50: 1.75 µM
  TGI: 3.23 µM
SK-OV-3 ovarian
  GI50: 6.63 µM
  TGI: > 100 µM
PC-3 prostate
  GI50: 2.66 µM
  TGI: > 100 µM
SW-620 colon
  GI50: 3.18 µM
  TGI: 15.8 µM
A498 renal
  GI50: 0.801 µM
  TGI: 5.59 µM
A549 NSCLC
  GI50: 3.85 µM
  TGI: > 100 µM
SF-268 CNS
  GI50: 4.62 µM
  TGI: > 100 µM
SN12C renal
  GI50: 1.88 µM
  TGI: 3.51 µM
IGROV1 ovarian
  GI50: 2.77 µM
  TGI: 31.3 µM
HOP-62 NSCLC
  GI50: 5.26 µM
  TGI: > 100 µM
UO-31 renal
  GI50: 1.53 µM
  TGI: 7.29 µM
NCI-H460 lung
  GI50: 2.62 µM
  TGI: 8.35 µM
MCF7 breast
  GI50: 3.23 µM
  TGI: 11.4 µM
NCI/ADR-RES ovarian
  GI50: 2.67 µM
  TGI: 19.2 µM
SK-MEL-2 melanoma
  GI50: 2.55 µM
  TGI: 7.15 µM
HCT-15 colon
  GI50: 2.84 µM
  TGI: 18 µM
RPMI-8226 leukemia
  GI50: 2.32 µM
  TGI: 7.52 µM
MDA-MB-231 breast
  GI50: 3.47 µM
  TGI: 22.7 µM
NCI-H226 lung
  GI50: 2.68 µM
  TGI: 21.7 µM
HCT-116 colon
  GI50: 1.94 µM
  TGI: 8.02 µM
HS 578T breast
  GI50: 1.84 µM
  TGI: 13.6 µM
MOLT-4 leukemia
  GI50: 2.46 µM
  TGI: 13.1 µM
HOP-92 NSCLC
  GI50: 1.98 µM
  TGI: 12.8 µM
SNB-75 CNS
  GI50: 3.17 µM
  TGI: > 100 µM
NCI-H23 lung
  GI50: 3.35 µM
  TGI: 53.6 µM
HL-60(TB) leukemia
  GI50: 2.15 µM
  TGI: 5.44 µM
UACC-257 melanoma
  GI50: 3.43 µM
  TGI: 38.3 µM
OVCAR-3 ovarian
  GI50: 3.26 µM
  TGI: 11.6 µM
NCI-H522 lung
  GI50: 2.59 µM
  TGI: 15.7 µM
MDA-MB-435
  GI50: 3.73 µM
  TGI: 55.6 µM
SF-539 CNS
  GI50: 5.62 µM
  TGI: 26.7 µM
U251 CNS
  GI50: 2.85 µM
  TGI: 13.6 µM
OVCAR-4 ovarian
  GI50: 3.07 µM
  TGI: 86.7 µM
ACHN renal
  GI50: 3.22 µM
  TGI: > 100 µM
OVCAR-8 ovarian
  GI50: 3.82 µM
  TGI: > 100 µM
SK-MEL-5 melanoma
  GI50: 1.97 µM
  TGI: 4.62 µM
LOX IMVI melanoma
  GI50: 2.54 µM
  TGI: 8.23 µM
SR leukemia
  GI50: 2.67 µM
  TGI: 9.58 µM
CCRF-CEM leukemia
  GI50: 3.25 µM
  TGI: 22 µM
KM12 colon
  GI50: 3.36 µM
  TGI: 12.2 µM
T-47D breast
  GI50: 2.94 µM
  TGI: > 100 µM
